Several values for one entry are separate records, joined by “and”; a condition that tells them apart may be missing. Equal entries are not always repeated. Where two headings read alike, the source gives them in different places.
How the values were obtained:
recombinant human AChE [1] = biological target: T1, recombinant human AChE (Homo sapiens, UniProt P22303); experiment: biochemical
[2] = biological target: AChE in neural stem cell spheroids (Homo sapiens, UniProt P22303); experiment: cell-based; details: for IC50: potency (IC50)
Sequence of AChE in neural stem cell spheroids (P22303 32-614): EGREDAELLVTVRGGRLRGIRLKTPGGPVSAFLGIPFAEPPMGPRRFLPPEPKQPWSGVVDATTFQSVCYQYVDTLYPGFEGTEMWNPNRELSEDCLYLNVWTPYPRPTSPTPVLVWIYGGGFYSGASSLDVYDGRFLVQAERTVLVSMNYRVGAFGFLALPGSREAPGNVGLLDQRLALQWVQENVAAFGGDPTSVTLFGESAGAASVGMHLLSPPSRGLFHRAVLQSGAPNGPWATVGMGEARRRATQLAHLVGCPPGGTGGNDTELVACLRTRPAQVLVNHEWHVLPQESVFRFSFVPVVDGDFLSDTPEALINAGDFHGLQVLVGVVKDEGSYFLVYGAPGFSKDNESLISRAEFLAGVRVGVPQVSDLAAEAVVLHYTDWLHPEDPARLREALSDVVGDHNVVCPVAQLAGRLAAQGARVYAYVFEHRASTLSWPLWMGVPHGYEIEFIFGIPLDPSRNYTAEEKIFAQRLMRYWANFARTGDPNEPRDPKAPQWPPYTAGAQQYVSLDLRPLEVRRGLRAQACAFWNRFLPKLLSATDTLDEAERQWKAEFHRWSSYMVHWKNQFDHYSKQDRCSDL

AChE in SH-SY5Y cells = AChE in SH-SY5Y cells (Homo sapiens, UniProt P22303); experiment: cell-based
Sequence of AChE in SH-SY5Y cells (P22303 32-614): as above

[3] = biological target: AChE in SH-SY5Y spheroids (Homo sapiens, UniProt P22303); experiment: cell-based; details: potency (IC50)
Sequence of AChE in SH-SY5Y spheroids (P22303 32-614): as above

recombinant human AChE [4] = biological target: T1, recombinant human AChE; experiment: biochemical; format: biochemical; details: for AC50: AC50 (uM)
[5] = biological target: AChE in neural stem cells (Homo sapiens, UniProt P22303); experiment: cell-based
Sequence of AChE in neural stem cells (P22303 32-614): as above

recombinant human AChE [6] = biological target: T1, recombinant human AChE; experiment: biochemical; remark: listed apart in the source
recombinant human AChE [7] = biological target: T1, recombinant human AChE; experiment: biochemical; remark: listed apart in the source
recombinant human AChE [8] = biological target: T1, recombinant human AChE
[9] = potency (IC50), Enzyme with microsomes
[10] = Neural stem cell spheroid (24 h)
[11] = Neural stem cell spheroid (48 h)
[12] = potency (IC50), SH-SY5Y cells monolayer
Throughout, for IR or R: key: Reversible (R); Irreversible (IR); ND, not detected in enzyme-based AChE inhibition assay from current study.

T1 sequence (P22303 32-614): as above

Row | SMILES | IC50 (recombinant human AChE [1]; [9]) [µM] | IC50 [2, 10] [µM] | IC50 [2, 11] [µM] | CC-v2 (curve classes) (AChE in SH-SY5Y cells) | IC50 (AChE in SH-SY5Y cells; IC50 (uM)) | IC50 (AChE in SH-SY5Y cells; [12]) [µM] | IC50 ([3]; SH-SY5Y spheroids (24 h)) [µM] | IC50 ([3]; SH-SY5Y spheroids (48 h)) [µM] | IR or R (recombinant human AChE [4]) | IC50 [5] [µM] | IC50 (recombinant human AChE [6]) [µM] | CC-v2 (curve classes) (recombinant human AChE [7]) | Efficacy (recombinant human AChE [7]) | IC50 (recombinant human AChE [7]; potency (IC50), Enzyme) [µM] | CC-v2 (curve classes) (recombinant human AChE [8]) | Efficacy (recombinant human AChE [8]) | AC50 (recombinant human AChE [4]; activity_5) | AC50 (recombinant human AChE [4]; activity_10) | AC50 (recombinant human AChE [4]; activity_60) | IC50 (recombinant human AChE [7]; IC50 (uM)) [µM] | other results
1 | CCN(CC)CCOc1ccc2c(c1)C(=O)c1cc(OCCN(CC)CC)ccc1-2 [Tilorone, reference compound] | 5.46 | 19.6 | 25.7 | -1.1 | 0.977 µM and 1.1 µM and 0.776 µM | 1.77 | 1.34 | 1.42 | R | 5.88 | 5.52 ± 1.16 | -1.1 | -92.014 | 4.18 | -1.1 | -84.739 | – | – | – | – | reversibility of AChE inhibition (result in words) (recombinant human AChE [4]): reversible; AC50 (recombinant human AChE [4]): 6.85 µM (2×) and 6.11 µM (2×) and 4.85 µM and 7.69 µM and 9.68 µM
2 | CCOP(=S)(Oc1cnc(C(C)(C)C)nc1)OC(C)C (stereo not shown) [Tebupirimfos] | 4.29 | 2.08 | 3.7 | -2.1 | 39.9 µM and 35.6 µM | 20.1 | 28.2 | 24.2 | – | 9.97 | 42.8 ± 2.79 | -2.1 | -96.664 | 46.2 | -1.1 | -95.03 | – | – | – | – | IC50 (recombinant human AChE [1]; IC50 (uM)): 10 µM; AC50 (recombinant human AChE [4]): 70.3 µM and 55.9 µM and 49.8 µM; IC50 (recombinant human AChE [7]; read-out: IC50): 63.3 µM
3 | CCN1CCC2(CC1)COc1cc3c(cc12)N(C(=O)c1ccc(-c2ccc(-c4nnc(C)o4)cc2C)cc1)CC3.Cl [SB236057A] | 66 ± 15.1 | – | 4.03 | -2.1 | 29.3 µM and 23.2 µM | 33.8 ± 2.29 | 27.8 ± 11.7 | 25.9 ± 2.98 | R | 42.6 ± 2.88 | 67.8 ± 8.64 | -2.1 | -86.107 | 38.3 ± 6.89 | 4 | 0 | 72.8 µM and 64.9 µM and 45.9 µM | 51.5 µM and 91.6 µM | 64.9 µM and 51.5 µM and 72.8 µM | 32.8 | potency (IC50), Neural stem cell spheroid (24 h) [2]: Inactive
4 | CN1CCc2cc(Cl)c(O)cc2[C@H]2c3ccccc3CC[C@@H]21 [Ecopipam, reference compound] | 27.3 | – | 3.16 | -2.2 | 27.5 µM and 34.7 µM | 15.8 | – | 17.7 | R | 17.5 | 32.7 ± 9.64 | -2.2 | -53.005 | 20.1 | 4 | 0 | – | – | – | 34.7 | AC50 (recombinant human AChE [4]): 21.7 µM (2×) and 9.68 µM and 19.3 µM and 15.3 µM (2×) and 17.2 µM
5 | O=C(O)/C=C/C(=O)O.O=C1c2ccccc2C(=O)N1CCc1noc(-c2ccc(CN3CCCCCC3)s2)n1 [PharmaGSID_48172] | 24.7 ± 1.61 | 17.1 ± 3.86 | 20.5 | -1.1 | 6.51 µM and 8.19 µM | 16.3 ± 1.86 | 17.5 ± 16.2 | 14.5 ± 1.67 | R | 36.3 | 21.2 ± 1.44 | -2.1 | -99.042 | 11.1 ± 1.52 | -2.2 | -51.694 | 22.9 µM and 36.3 µM and 32.3 µM | 20.4 µM and 36.3 µM and 28.8 µM | 32.3 µM and 40.7 µM and 22.9 µM | 23.1 | IC50 (recombinant human AChE [1]; IC50 (uM)): 58 µM
6 | CNC(=O)O/N=C(\SC)C(=O)N(C)C [Oxamyl] | 2.16 ± 0.36 | 0.96 ± 0.38 | 1.85 | -1.1 | 1.55 µM and 1.42 µM and 1.23 µM | 2.5 ± 0.28 | 2.28 ± 0.63 | 3.05 ± 0.52 | – | 3.39 ± 0.22 | 2.81 ± 0.32 | -1.1 | – | 1.74 ± 0.48 | -1.1 | – | 3.95 µM and 4.44 µM and 3.52 µM | 2.8 µM and 3.52 µM and 2.5 µM | 0.703 µM and 1.57 µM and 1.25 µM | – | –
7 | CNC(=O)Oc1ccccc1OC(C)C [Propoxur] | 1.76 | 20.1 ± 4.2 | 35.8 | -1.1 | 2.24 µM and 2 µM (2×) and 1.59 µM and 1.78 µM | 3.05 ± 0.52 | 3.55 ± 2.59 | 2.45 ± 0.61 | R | 17 ± 1.1 | 1.91 ± 0.12 | -1.1 | – | 1.55 ± 0.43 | -1.1 | – | 22.2 µM and 14 µM and 6.27 µM | 4.98 µM and 14 µM and 7.03 µM | 1.77 µM and 1.11 µM and 2.5 µM | – | –
8 | Cc1nc2n(c(=O)c1CCN1CCC(C(=O)c3ccc(F)cc3)CC1)CCS2 [Setoperone, reference compound] | 18.6 ± 1.21 | – | – | -2.1 | 13.8 µM and 12.3 µM and 15.5 µM | 16 ± 1.08 | 2.66 ± 1.88 | 13.7 ± 1.58 | R | 8.35 ± 1.14 | 20.1 ± 1.36 | -2.2 | -57.619 | 14.2 ± 0.96 | 4 | 0 | 4.32 µM and 6.11 µM and 7.69 µM | 4.85 µM and 7.69 µM and 10.9 µM | 6.11 µM and 6.85 µM | 30.9 | potency (IC50), Neural stem cell spheroid (24 h) [2]: Inactive
9 | CCOC(=O)C(SP(=S)(OC)OC)c1ccccc1 (stereo not shown) [Phenthoate] | 29.1 ± 1.97 | 26.5 ± 11.5 | 8.66 | -1.1 and -2.1 | 31.7 µM and 22.4 µM and 25.2 µM | 12.6 ± 1.44 | 1.01 ± 1.29 | 20.4 ± 5.69 | – | 33.2 ± 15.3 | 38.1 ± 2.48 | -2.2 | -77.281 | 25.1 ± 2.88 | -3 | -48.701 | 44.4 µM | 49.8 µM and 39.5 µM | 39.5 µM and 28 µM and 31.4 µM | 71 | IC50 (recombinant human AChE [1]; IC50 (uM)): 79.6 µM
10 | CCN(C(=O)c1cc(C)cc(OC[C@H](C)Nc2ccncc2)c1)C(C)C.Cc1ccc(S(=O)(=O)O)cc1 [GW473178E methyl benzene sulfonic acid] | 18.9 | – | 31.2 | -1.1 | 12.5 µM and 11.1 µM | 23.3 | 9.63 | 24 | R | 24.8 | 19.7 ± 2.26 | -2.1 | -70.195 | 10.6 | -2.2 | -52.62 | – | – | – | 22.2 | IC50 (recombinant human AChE [1]; IC50 (uM)): 49.7 µM; potency (IC50), Neural stem cell spheroid (24 h) [2]: Inactive; AC50 (recombinant human AChE [4]): 11 µM (2×) and 19.6 µM and 9.82 µM (3×) and 8.76 µM and 12.4 µM

From paper PMC8041433 (Environmental Health Perspectives, 2021)
